Experimental data taken from US4442044A, “Process for preparing monoesters and diesters of N-alkyl substituted amino methyl phosphonic acid” (priority 1983, dated 1984).

Assays:
Assay in all cases: post-emergent herbicidal activity, greenhouse
Type in all cases: in vivo
Barnyardgrass = conditions: 4 WAT
Method in brief: (§1)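 Seeds or propagules sown in compacted top soil, grown 2–3 weeks in greenhouse, then sprayed with compound solution/suspension containing ~0.4% emulsifier at tabulated rates. Injury scored visually versus untreated controls at ~2 and 4 weeks after treatment, expressed as a herbicidal activity index.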

Canada Thistle = conditions: Table I, 4 WAT
Method in brief: as §1

Cocklebur = conditions: 4 WAT
Method in brief: as §1

Crabgrass = conditions: Table II, 4 WAT
Method in brief: as §1

Downy Brome = conditions: 4 WAT
Method in brief: as §1

Hemp Sesbania = conditions: Table II, 4 WAT, 1.12 kg/h
Method in brief: as §1

Johnsongrass = conditions: Table I, 4 WAT
Method in brief: as §1

Lambsquarters = conditions: 4 WAT
Method in brief: as §1

Morningglory = conditions: 4 WAT
Method in brief: as §1

Panicum Spp = conditions: Table II, 4 WAT
Method in brief: as §1

Quackgrass = conditions: Table I, 4 WAT
Method in brief: as §1

Rice = conditions: Table II, 4 WAT
Method in brief: as §1

Smartweed = conditions: 4 WAT
Method in brief: as §1

Sorghum = conditions: Table II, 4 WAT
Method in brief: as §1

Soybean = conditions: Table II, 4 WAT
Method in brief: as §1

Sugar Beet = conditions: Table II, 4 WAT
Method in brief: as §1

Velvetleaf = conditions: 4 WAT
Method in brief: as §1

Wheat = conditions: Table II, 4 WAT
Method in brief: as §1

Wild Buckwheat = conditions: Table II, 4 WAT
Method in brief: as §1

Yellow Nutsedge = conditions: Table I, 4 WAT
Method in brief: as §1

## CCOC(=O)CNCP(=O)(OCCN1CCCC1)OCCN1CCCC1 [Example 24, glycine, N-[[bis[2-(1-pyrrolidinyl)ethoxy]phosphinyl]methyl]-, ethyl ester]
Barnyardgrass; Table I, 5.6 kg/h
  post-emergent herbicidal activity index: 2 (50-74% control)
Barnyardgrass; Table I, 11.2 kg/h
  post-emergent herbicidal activity index: 3 (75-99% control)
Barnyardgrass; Table II, 1.12 kg/h
  post-emergent herbicidal activity index: 1 (25-49% control)
Barnyardgrass; Table II, 5.6 kg/h
  post-emergent herbicidal activity index: 3 (75-99% control)
Canada Thistle; 5.6 kg/h
  post-emergent herbicidal activity index: 1 (25-49% control)
Canada Thistle; 11.2 kg/h
  post-emergent herbicidal activity index: 1 (25-49% control)
Cocklebur; Table I, 5.6 kg/h
  post-emergent herbicidal activity index: 1 (25-49% control)
Cocklebur; Table I, 11.2 kg/h
  post-emergent herbicidal activity index: 2 (50-74% control)
Cocklebur; Table II, 1.12 kg/h
  post-emergent herbicidal activity index: 0 (0-24% control)
Cocklebur; Table II, 5.6 kg/h
  post-emergent herbicidal activity index: 3 (75-99% control)
Crabgrass; 1.12 kg/h
  post-emergent herbicidal activity index: 2 (50-74% control)
Crabgrass; 5.6 kg/h
  post-emergent herbicidal activity index: 4 (100% control)
Downy Brome; Table I, 5.6 kg/h
  post-emergent herbicidal activity index: 0 (0-24% control)
Downy Brome; Table I, 11.2 kg/h
  post-emergent herbicidal activity index: 1 (25-49% control)
Downy Brome; Table II, 1.12 kg/h
  post-emergent herbicidal activity index: 0 (0-24% control)
Downy Brome; Table II, 5.6 kg/h
  post-emergent herbicidal activity index: 2 (50-74% control)
Hemp Sesbania
  post-emergent herbicidal activity index: 1 (25-49% control)
Johnsongrass; 5.6 kg/h
  post-emergent herbicidal activity index: 1 (25-49% control)
Johnsongrass; 11.2 kg/h
  post-emergent herbicidal activity index: 2 (50-74% control)
Lambsquarters; Table I, 5.6 kg/h
  post-emergent herbicidal activity index: 3 (75-99% control)
Lambsquarters; Table I, 11.2 kg/h
  post-emergent herbicidal activity index: 1 (25-49% control)
Lambsquarters; Table II, 1.12 kg/h
  post-emergent herbicidal activity index: 1 (25-49% control)
Lambsquarters; Table II, 5.6 kg/h
  post-emergent herbicidal activity index: 3 (75-99% control)
Morningglory; Table I, 5.6 kg/h
  post-emergent herbicidal activity index: 1 (25-49% control)
Morningglory; Table I, 11.2 kg/h
  post-emergent herbicidal activity index: 2 (50-74% control)
Morningglory; Table II, 1.12 kg/h
  post-emergent herbicidal activity index: 1 (25-49% control)
Morningglory; Table II, 5.6 kg/h
  post-emergent herbicidal activity index: 2 (50-74% control)
Panicum Spp; 1.12 kg/h
  post-emergent herbicidal activity index: 1 (25-49% control)
Panicum Spp; 5.6 kg/h
  post-emergent herbicidal activity index: 4 (100% control)
Quackgrass; 5.6 kg/h
  post-emergent herbicidal activity index: 1 (25-49% control)
Quackgrass; 11.2 kg/h
  post-emergent herbicidal activity index: 2 (50-74% control)
Rice; 1.12 kg/h
  post-emergent herbicidal activity index: 0 (0-24% control)
Rice; 5.6 kg/h
  post-emergent herbicidal activity index: 2 (50-74% control)
Smartweed; Table I, 5.6 kg/h
  post-emergent herbicidal activity index: 2 (50-74% control)
Smartweed; Table I, 11.2 kg/h
  post-emergent herbicidal activity index: 2 (50-74% control)
Smartweed; Table II, 1.12 kg/h
  post-emergent herbicidal activity index: 2 (50-74% control)
Smartweed; Table II, 5.6 kg/h
  post-emergent herbicidal activity index: 2 (50-74% control)
Sorghum; 1.12 kg/h
  post-emergent herbicidal activity index: 0 (0-24% control)
Sorghum; 5.6 kg/h
  post-emergent herbicidal activity index: 2 (50-74% control)
Soybean; 1.12 kg/h
  post-emergent herbicidal activity index: 0 (0-24% control)
Soybean; 5.6 kg/h
  post-emergent herbicidal activity index: 2 (50-74% control)
Sugar Beet; 1.12 kg/h
  post-emergent herbicidal activity index: 0 (0-24% control)
Sugar Beet; 5.6 kg/h
  post-emergent herbicidal activity index: 1 (25-49% control)
Velvetleaf; Table I, 5.6 kg/h
  post-emergent herbicidal activity index: 1 (25-49% control)
Velvetleaf; Table I, 11.2 kg/h
  post-emergent herbicidal activity index: 1 (25-49% control)
Velvetleaf; Table II, 1.12 kg/h
  post-emergent herbicidal activity index: 0 (0-24% control)
Velvetleaf; Table II, 5.6 kg/h
  post-emergent herbicidal activity index: 2 (50-74% control)
Wheat; 1.12 kg/h
  post-emergent herbicidal activity index: 0 (0-24% control)
Wheat; 5.6 kg/h
  post-emergent herbicidal activity index: 2 (50-74% control)
Wild Buckwheat; 1.12 kg/h
  post-emergent herbicidal activity index: 0 (0-24% control)
Wild Buckwheat; 5.6 kg/h
  post-emergent herbicidal activity index: 1 (25-49% control)
Yellow Nutsedge; 5.6 kg/h
  post-emergent herbicidal activity index: 2 (50-74% control)
Yellow Nutsedge; 11.2 kg/h
  post-emergent herbicidal activity index: 1 (25-49% control)
